Test results reported in paper PMC9736374, “Design, Synthesis and Antimicrobial Properties of New Tetracyclic Quinobenzothiazine Derivatives” (International Journal of Molecular Sciences, 2022).
≈ marks a conversion by molar mass, not a printed value.

What was measured:
[1] = system: M. smegmatis ATCC 700084; test: In vitro antimycobacterial MIC, broth dilution micro-method; type: cell-based, Mycobacterium smegmatis; conditions: Mycolicibacterium smegmatis, ATCC700084, 72 h; MS = M. smegmatis ATCC 700084; 3 days, 37 °C
[2] = Lipophilicity by RP-TLC; type: physicochemical; conditions: Tris buffer pH 7.4/acetone, read-out: logPTLC
Procedure: The lipophilicity parameters were determined experimentally using reverse phase thin-layer chromatography (RP-TLC). Chromatograms were prepared on RP-18F254s plates (1.05559.0001, Merck, Germany) precoated with nonpolar silicone oil. Plates were developed in glass chromatography chambers previously saturated with vapor of mobile phase. The mobile phase was composed of 0.2M Tris buffer (pH = 7.4) and acetone in different concentrations, i.e., 50%, 60%, 70%, 80 and 90%. The chromatograms were visualised in UV light (λ = 254 nm). Determination of the RF coefficient was carried out twice for all compounds; in all cases, acetone concentrations used. The final value of RF is the mean of the two measurements. The obtained RF coefficient was used to calculate the value of the RM parameter according to the equation: RM = log [(1/RF) − 1]. By extrapolating RM values to zero acetone concentration, a relative RM0 lipophilicity parameter was obtained, according to the equation: RM = RM0 + bC, where b is slope and C is concentration of acetone in mobile phase. Based on RM0 and the calibration curve, the values of logPTLC for compounds 6a–l were determined. The calibration curve was calculated using the relationship between RM0 of the standard molecules (acetanilide, p-kresol, p-bromoacetophenone, benzophenone, anthracene) and the corresponding logP parameters specified by the extraction method, respectively. RM0 parameters of the standard molecules and quinobenzothiazine derivatives 6a–l were determined in the same empirical conditions.

[3] = system: methicillin-resistant S. aureus 63718 (MRSA3); test: MIC, microtitration broth method; type: cell-based; conditions: Staphylococcus aureus; MRSA3 = 63718; 24 h, 37 °C
[4] = system: Enterococcus faecalis ATCC 29212; test: MIC, microtitration broth method; type: cell-based; conditions: ATCC29212; EF = Enterococcus faecalis; 24 h, 37 °C
[5] = system: Enterococcus faecalis ATCC 29212; test: MBC, agar aliquot subculture method; type: cell-based; conditions: ATCC29212; EF = Enterococcus faecalis
[6] = system: normal human dermal fibroblasts (NHDF); test: In vitro cell viability, WST-1 assay; type: cell-based; conditions: 72 h
Procedure: Compounds were evaluated for their antiproliferative activity using NHDF (normal human dermal fibroblasts, ATCC, Manassas, VA, USA). The cultured cells were kept at 37 °C and 5% CO2. The cells were seeded (1 × 10^4 cells/well/100 μL DMEM supplemented with 10% FCS and streptomycin/penicillin) into 96-well plates (Corning Inc., Corning, NY, USA). Cells were counted using a hemocytometer (Burker chamber) and phase contrast Olympus IX50 microscope equipped with Sony SSC-DC58 AP camera and Olympus DP10 digital camera. The cell viability of the compounds was determined using the Cell Proliferation Reagent WST-1 assay (Roche Molecular Biochemicals, Mannheim, Germany). The examined cells were exposed to the tested compounds (1 mg/mL DMSO stock) for 72 h at various concentrations (0.1–100 μg/mL). The control was included in order to eliminate the DMSO effect at the concentration used. Cell cultures were incubated with WST-1 (10 μL) for 1 h. The absorbance of the samples was measured against a background control at 450 nm using a microplate reader with a reference wavelength at 600 nm. The obtained results are expressed as means of at least two independent experiments performed in triplicate.

[7] = system: vancomycin-resistant E. faecalis VRE 342B (VRE1); test: MIC, microtitration broth method; type: cell-based, Enterococcus faecalis; conditions: VRE1 = VRE 342B; 24 h, 37 °C
[8] = system: Staphylococcus aureus ATCC 29213; test: MIC, microtitration broth method; type: cell-based; conditions: ATCC29213; SA = Staphylococcus aureus ATCC 29213; 24 h, 37 °C
[9] = system: vancomycin-resistant E. faecalis VRE 368 (VRE2); test: MBC, agar aliquot subculture method; type: cell-based, Enterococcus faecalis; conditions: VRE2 = VRE 368
[10] = system: vancomycin-resistant E. faecalis VRE 342B (VRE1); test: MBC, agar aliquot subculture method; type: cell-based, Enterococcus faecalis; conditions: VRE1 = VRE 342B
[11] = system: Staphylococcus aureus ATCC 29213; test: MBC, agar aliquot subculture method; type: cell-based; conditions: ATCC29213; SA = Staphylococcus aureus ATCC 29213
[12] = system: Mycobacterium marinum CAMP 5644; test: In vitro antimycobacterial MIC, broth dilution micro-method; type: cell-based; conditions: CAMP5644, 504 h; MM = Mycobacterium marinum CAMP 5644; 21 days, 28 °C
[13] = system: vancomycin-resistant E. faecalis VRE 368 (VRE2); test: MIC, microtitration broth method; type: cell-based, Enterococcus faecalis; conditions: VRE2 = VRE 368; 24 h, 37 °C
[14] = system: vancomycin-resistant E. faecalis VRE 725B (VRE3); test: MIC, microtitration broth method; type: cell-based, Enterococcus faecalis; conditions: VRE3 = VRE 725B; 24 h, 37 °C
[15] = system: methicillin-resistant S. aureus SA 3202 (MRSA1); test: MIC, microtitration broth method; type: cell-based; conditions: Staphylococcus aureus; MRSA1 = SA 3202; 24 h, 37 °C
[16] = system: methicillin-resistant S. aureus SA 630 (MRSA2); test: MBC, agar aliquot subculture method; type: cell-based; conditions: Staphylococcus aureus; MRSA2 = SA 630
[17] = system: methicillin-resistant S. aureus SA 3202 (MRSA1); test: MBC, agar aliquot subculture method; type: cell-based; conditions: Staphylococcus aureus; MRSA1 = SA 3202
[18] = system: methicillin-resistant S. aureus 63718 (MRSA3); test: MBC, agar aliquot subculture method; type: cell-based; conditions: Staphylococcus aureus; MRSA3 = 63718
[19] = system: methicillin-resistant S. aureus SA 630 (MRSA2); test: MIC, microtitration broth method; type: cell-based; conditions: Staphylococcus aureus; MRSA2 = SA 630; 24 h, 37 °C
[20] = system: vancomycin-resistant E. faecalis VRE 725B (VRE3); test: MBC, agar aliquot subculture method; type: cell-based, Enterococcus faecalis; conditions: VRE3 = VRE 725B
[21] = system: S. aureus ATCC 29213 respiratory activity; test: MTT assay of bacterial respiration; type: cell-based, Staphylococcus aureus; conditions: for Conc.: corresponding multiple of MBC with at least 70% inhibition of respiratory activity / Conc.: lowest multiple of MIC with at least 70% inhibition of respiratory activity: S. aureus ATCC 29213, MTT, 24 h

Row | Structure (SMILES) | MIC [1] [µM] | chromatographic logP [2] | MIC [3] [µM] | MIC [4] [µM] | MBC [5] [µM] | IC50 [6] [µM] | MIC [7] [µM] | MIC [8] [µM] | MBC [9] [µM] | MBC [10] [µM] | MBC [11] [µM] | MIC [12] [µM] | MIC [13] [µM] | MIC [14] [µM] | MIC [15] [µM] | MBC [16] [µM] | MBC [17] [µM] | MBC [18] [µM] | MIC [19] [µM] | MBC [20] [µM] | also measured
1 | C[n+]1cc2c(c3ccccc31)Nc1c(OCc3ccccc3)cccc1S2 [Compound 6l, 11-benzyloxy-5-methyl-12H-quino[3,4-b][1,4]benzothiazinium chloride] | 39.3 | 3.1 | 39.3 | 157 | 157 | > 100 | 157 | 39.3 | 157 | 157 | 39.3 | 9.83 | 157 | 157 | 39.3 | 78.6 | 78.6 | 39.3 | 78.6 | 157 | 
2 | C#CCOc1cccc2c1Nc1c(c[n+](C)c3ccccc13)S2 [Compound 6i, 11-propargyloxy-5-methyl-12H-quino[3,4-b][1,4]benzothiazinium chloride] | 90.1 | 2.2 | 180 | 361 | 361 | 47.5 | 180 | 180 | 180 | 180 | 180 | 45.1 | 180 | 180 | 180 | 361 | 361 | 180 | 361 | 180 | 
3 | CO[C@H]1/C=C/O[C@@]2(C)Oc3c(C)c(O)c4c(O)c(c(/C=N/N5CCN(C)CC5)c(O)c4c3C2=O)NC(=O)/C(C)=C\C=C\[C@H](C)[C@H](O)[C@@H](C)[C@@H](O)[C@@H](C)[C@H](OC(C)=O)[C@@H]1C [RIF, rifampicin, reference compound] | 19.4 (≈ 16 µg/mL) |  |  |  |  |  |  |  |  |  |  | 2.43 (≈ 2 µg/mL) |  |  |  |  |  |  |  |  | 
4 | Cc1onc(-c2ccccc2)c1C(=O)N[C@@H]1C(=O)N2[C@@H]1SC(C)(C)[C@@H]2C(=O)O [OXA, oxacillin, reference compound] |  |  | 9.9 (≈ 3.97 µg/mL) |  |  |  |  | 1.25 (≈ 0.502 µg/mL) |  |  | 1.25 (≈ 0.502 µg/mL) |  |  |  | 79.8 (≈ 32 µg/mL) | 29.7 (≈ 11.9 µg/mL) | 79.8 (≈ 32 µg/mL) | 9.9 (≈ 3.97 µg/mL) | 29.7 (≈ 11.9 µg/mL) |  | 
5 | CN(C)[C@@H]1C(O)=C(C(N)=O)C(=O)[C@@]2(O)C(O)=C3C(=O)c4c(O)cccc4[C@@](C)(O)[C@H]3C[C@@H]12 [TTC, tetracycline, reference compound] |  |  | > 72.1 |  |  |  |  | 4.52 (≈ 2.01 µg/mL) |  |  |  |  |  |  | 36.1 (≈ 16 µg/mL) |  |  |  | 36.1 (≈ 16 µg/mL) |  | 
6 | C#CCOc1ccc2c(c1)Nc1c(c[n+](C)c3ccccc13)S2 [Compound 6h, 10-propargyloxy-5-methyl-12H-quino[3,4-b][1,4]benzothiazinium chloride] | 22.5 | 1.74 | 45.1 | 45.1 | 45.1 | > 100 | 45.1 | 45.1 | 45.1 | 45.1 | 45.1 | 22.5 | 45.1 | 22.5 | 90.1 | 90.1 | 90.1 | 45.1 | 90.1 | 22.5 | 
7 | COc1cccc2c1C(=O)c1c(O)c3c(c(O)c1C2=O)C[C@@](O)(C(=O)CO)C[C@@H]3O[C@H]1C[C@H](N)[C@H](O)[C@H](C)O1 [doxorubicin, reference compound] |  |  |  |  |  | 5.5 |  |  |  |  |  |  |  |  |  |  |  |  |  |  | 
8 | NNC(=O)c1ccncc1 [INH, isoniazid, reference compound] | 117 (≈ 16 µg/mL) |  |  |  |  |  |  |  |  |  |  | 467 (≈ 64 µg/mL) |  |  |  |  |  |  |  |  | 
9 | O=C(O)c1cn(C2CC2)c2cc(N3CCNCC3)c(F)cc2c1=O [CPX, ciprofloxacin, reference compound] |  |  |  |  |  |  |  |  |  |  |  |  |  |  |  |  |  |  |  |  | Conc.: corresponding multiple of MBC with at least 70% inhibition of respiratory activity [21]: 32× MIC (32× MBC); Conc.: lowest multiple of MIC with at least 70% inhibition of respiratory activity [21]: 32× MIC (32× MBC); S. aureus Respiration Inhibition ([21]; at the concentration given): 96.1%
10 | C=CCOc1ccc2c(c1)Sc1c[n+](C)c3ccccc3c1N2 [Compound 6d, 9-allyloxy-5-methyl-12H-quino[3,4-b][1,4]benzothiazinium chloride] | 22.4 | 2.98 | 44.8 | 44.8 | 44.8 | > 100 | 44.8 | 44.8 | 44.8 | 44.8 | 44.8 | 11.2 | 44.8 | 22.4 | 44.8 | 89.6 | 44.8 | 44.8 | 89.6 | 44.8 | 
11 | CCCOc1ccc2c(c1)Nc1c(c[n+](C)c3ccccc13)S2 [Compound 6b, 10-propoxy-5-methyl-12H-quino[3,4-b][1,4]benzothiazinium chloride] | 22.3 | 1.99 | 22.3 | 89.1 | 89.1 | 65.5 | 178 | 22.3 | 178 | 178 | 44.6 | 22.3 | 178 | 89.1 | 44.6 | 44.6 | 44.6 | 22.3 | 44.6 | 89.1 | 
12 | CC1(C)S[C@@H]2[C@H](NC(=O)[C@H](N)c3ccccc3)C(=O)N2[C@H]1C(=O)O [AMP, ampicillin, reference compound] |  |  |  | 2.81 (≈ 0.982 µg/mL) | 2.81 (≈ 0.982 µg/mL) |  |  | 5.72 (≈ 2 µg/mL) |  |  | 5.72 (≈ 2 µg/mL) |  |  |  |  |  |  |  |  |  | Conc.: corresponding multiple of MBC with at least 70% inhibition of respiratory activity [21]: 16× MIC (>16× MBC); Conc.: lowest multiple of MIC with at least 70% inhibition of respiratory activity [21]: 16× MIC (>16× MBC)
